Tests used:
[1] = Storage stability of lyophilized voriconazole compositions, total impurities by HPLC after reconstitution; type: physicochemical
Procedure: Lyophilized compositions were formed by dissolving the excipient (SBECD or HPCD) in water and adjusting the pH of the resulting excipient solution. Voriconazole (200 mg) was added to the excipient solution, and the pH of the resulting lyophilization solution was adjusted as necessary. The lyophilization solutions were then filtered and lyophilized to form solid compositions. The lyophilization procedure was adjusted as need for each type of composition; however, the general procedure included reducing the temperature of the lyophilization solutions to −45° C., performing a primary drying at a temperature of from −35 to −15° C. and under a vacuum of from 50-200 milliTorr (mTorr), and performing a secondary drying at a temperature of 40° C. To ensure the lowest initial impurities possible, the solutions for lyophilization were prepared at low temperature, using a nitrogen blanket and purging.
Each composition was sealed in a 5 mL vial with a 13 mm rubber stopper (STELMI 6720GC; American Stelmi Corporation, Princeton, N.J.) and stored at 25° C., 40° C. or 55° C. (all temperatures ±2° C.). After storage for 4 or 8 weeks at 25° C., for 4, 8 or 12 weeks at 40° C., or for 2 or 4 weeks at 55° C., a portion of the vials were reconstituted with 19 mL of water for injection. The reconstituted liquids were analyzed by HPLC to determine the concentrations of voriconazole and of any impurities. For comparison, a portion of each composition was reconstituted at the beginning of the storage time (time=0 weeks) with 19 mL of water for injection, and analyzed by HPLC for voriconazole and impurity concentrations.
Solutions comprising HPCD and voriconazole were prepared as described in Example 1, except that the pH of the solution prior to lyophilization was adjusted to 5.18, 5.5, 6.0, 6.5, or 7.0. The lyophilized compositions were formed and then analyzed for the stability of voriconazole over time at 40° C. or 55° C., as described above with regard to Table 1. Table 2 lists the results of stability analyses of lyophilized compositions containing voriconazole in combination with HPCD, where the compositions had different pH values prior to lyophilization.
(§1) The lyophilized compositions were formed and then analyzed for voriconazole stability over time at 40° C. and 55° C., as described above with regard to Table 1. Table 3 lists the results of stability analyses of lyophilized compositions containing voriconazole in combination with HPCD, where the compositions further included one of the amino acids arginine, aspartic acid or glycine.
as §1, with “3.” for “1.”, “4” for “3”, “lysine, histidine, asparagine, glutamine” for “arginine, aspartic acid”, “threonine.” for “glycine.”
The effects of pH prior to lyophilization were analyzed for the formulations that included lactose. The lyophilized compositions were formed and then analyzed for voriconazole stability over time at 40° C. and 55° C., as described above with regard to Table 3. […]
The pH prior to lyophilization was adjusted to 6.2 with HCl/NaOH. The lyophilized compositions were formed and then analyzed for voriconazole stability over time at 40° C. and 55° C., as described above with regard to Table 3. […]

[2] = aqueous liquid having a pH of 3; cited from earlier work

Total impurities (%) ([1]; lyophilized solid stored at 40 °C, 4 weeks): 0.70% | Total impurities (%) ([1]; lyophilized solid stored at 40 °C, 8 weeks): 0.34% | Total impurities (%) ([1]; lyophilized solid stored at 40 °C, 12 weeks): 0.43% | Total impurities (%) ([1]; lyophilized solid stored at 55 °C, 2 weeks): 0.58% | Total impurities (%) ([1]; lyophilized solid, time 0 weeks (reconstituted at beginning of storage)): 0.18%
Compound: C[C@@H](c1ncncc1F)[C@](O)(Cn1cncn1)c1ccc(F)cc1F [voriconazole, (2R,3S)-2-(2,4-difluorophenyl)-3-(5-fluoro-4-pyrimidinyl)-1-(1H-1,2,4-triazol-1-yl)-2-butanol]
solubility of voriconazole [2]: 2000 µg/mL
